Test results as given in patent US20230123497A1, “NOVEL ANTIBACTERIAL HYDROGELS” (NewSouth Innovations Pty Limited, priority 2020, published 2023).
Several values for one entry are separate records, joined by “and”; a condition that tells them apart may be missing. Identical values can stand only once. Values belong to the molecule of their own block, whether it stands above or below them.

Key:
Type in all cases: physicochemical
[1] = Hydrogel formation, vial inversion test (critical gel concentration)
Source text: (§1) The simplest method to determine whether a suitable hydrogel has formed is to use the vial inversion test. Through visual inspection, a material can be categorised as a solution, viscous solution, partial gel, or solid-like gel. A stable hydrogel needs to be able to hold its weight and/or maintain its shape during this assessment.
(§2) The critical gel concentration (CGC) is defined as the minimum mass of a short peptide required to provide a self-supporting hydrogel per unit volume in the vial inversion test (measured as % w/v).
(§3) Pre-weighed samples of short peptide 4 were prepared in aluminium-covered glass vials and Milli-Q water and 2 equivalents of NaOH (1.0 M) were added to make up concentrations of 1% w/v. The resulting suspensions were vortexed for 5 minutes to provide clear yellow solutions with pH 11.
(§4) To create a high ionic strength environment, 1 equivalent of NaCl was added and the vial was left to stand without disturbance for 3 hours at room temperature. Meanwhile, as an attempt to form a hydrogel by lowering the pH, 2 equivalents of GdL were added to a high pH solution of 4 followed by gentle mixing. These vials were inverted and allowed to stand overnight to confirm the hydrogel formation.
(§5) The formation of hydrogel 4 via the solvent switch method was conducted by dissolving short peptide 4, in an aluminium covered glass vial, with either 50% methanol, ethanol, or dimethyl sulfoxide (DMSO). Respective amounts of Mili-Q water were added to make up concentrations of 1% w/v.
(§6) In addition, gelation time was defined as the time (hours) required for 1% w/v of short peptide 4 to form a hydrogel which can be turned upside down without collapsing.
(§7) Pre-weighed samples of short peptides 10a-17a, 18, and 19 were prepared in glass vials with 10 mm internal diameter, and Milli-Q water was added to make up concentrations of 1% w/v. The resulting suspensions of short peptides 13, 18, and 19 (as ammonium or guanidinium salts) were slowly warmed until all solid had completely dissolved. GdL (1.5 to 2.0 equivalents) was added to the suspension of short peptides 10a-17a, before heat was applied. To create a high ionic strength environment, 1-5 equivalents of NaCl was added to the viscous solution of 10a-17a to make the total volume up to 1 mL, followed by gentle mixing, and the vial was left to stand without disturbance for 3 hours at room temperature. Subsequently, these vials were inverted and allowed to stand overnight to confirm hydrogel formation.

[2] = Frequency sweep test (FST), rheometer; settings: for G′: 1% w/v
Description: The mechanical properties of anthranilamide-based cationic hydrogels were assessed using an Anton Paar MCR 302 rheometer with a 25 mm stainless parallel plate configuration.
(§8) Initially, 1 mL of hydrogels were prepared from short peptides 11-13 and 15-19 in glass vials at concentration of 1% w/v. These vials were warmed using a heat gun to transform the hydrogel to the solution phase. Subsequently, 560 μL of the resulting solutions were cast onto the rheometer plate. The other plate was lowered to the measuring position ([…]) and the hydrogel was allowed to stand for 3 hours for the gel to form. The FST was conducted at fixed strain of 0.1% and frequency ranging from 10 Hz to 0.01 Hz. Meanwhile, the strain sweep test (SST) was performed at a frequency of 1 Hz using 0.1% strain to 100% strain. The rheology data were shown as the average of three repeats for each data point.
(§9) The mechanical properties of hydrogels 4 (formed via addition of NaCl or GdL) before and after blue light irradiation were also assessed using an Anton Paar MCR 302 rheometer with a 25 mm stainless parallel plate configuration. Prior to the hydrogel formation, 560 μL of solution phase of short peptide 4 at 1% w/v were transferred onto a rheometer plate. Meanwhile, hydrogel 4, which had been exposed to blue light, was warmed using a heat gun, to provide its solution phase. Subsequently, 560 μL of this solution phase was cast onto the rheometer plate. The other plate was lowered to the measuring position ([…]) and the hydrogel was allowed to stand for 3 hours for the gel to form. The frequency sweep test (FST) was conducted at fixed strain of 0.1% and frequency ranging from 10 Hz to 0.01 Hz. Meanwhile, the SST was performed at a frequency of 1 Hz using 0.1% strain to 100% strain. In addition, the temperature sweep test was conducted to obtain transition glass (Tg) using fixed frequency of 1 Hz and fixed strain of 0.1% with temperature ramping from 25° C. to 90° C. The rheology data were shown as the average of three repeats for each data point.
In the FST, samples were measured over a range of oscillation frequencies (0.1-10 rad/s) at fixed strain, temperature, and oscillation amplitude. Higher frequencies simulate fast motion on a short time-scale, while low frequencies simulate slow motion on a long time-scale, or rest. All of the hydrogels made from the anthranilamide-based short cationic peptides, which passed the vial inversion test, were subjected to the FST using a rheometer to precisely assess their mechanical properties.

[3] = Strain sweep test (SST), linear viscoelastic region
Description: as §8, §9
To observe the structural decay in anthranilamide-based cationic hydrogels, the SST was performed by imposing a non-linear strain. SST provides information about the viscoelastic properties of a hydrogel through determination of its linear viscoelastic region (LVER). […] Here, the LVER reported for each hydrogel represents the deviation of storage modulus (G′) from linearity, known as yield point (γy). Yield points have been reported to reflect a point where the rigidity of a hydrogel starts to weaken.

[4] = Atomic force microscopy (AFM) of fibers
Description: Hydrogels of NO-releasing short peptide 4 (1 drop), at high pH, low pH, and after irradiation, were cast onto a mica substrate. Hydrogels of cationic short peptides 11-13 and 15-19 were prepared at their CGC, 2× below, and 4× below CGC in glass vials. Prior to gelation, one drop of the cationic short peptide solutions was cast onto a mica substrate. Using a glass slide, each droplet was carefully spread and was left to dry overnight before imaging. Imaging was performed using a Bruker Multimode 8 Atomic Force Microscope in Scanasyst Air (PeakForce Tappings) mode, which is based on tapping mode AFM. To prevent damage of soft samples, the imaging parameters were constantly optimized through the force curves that were collected. Bruker Scanasyst-Air probes were used, with a spring constant of 0.4-0.8 N·m^−1 and a tip radius of 2 nm.
To gain some insight on the mechanism of antibacterial action, the released solutions from hydrogel made of primary ammonium 11 were directly cast onto a mica substrate. […] After gently spreading using a glass slide and left to dry overnight, these samples were imaged using a similar manner as describe above.

[5] = Hydrogel formation, vial inversion test (critical gel concentration); parameters: key: VS: viscous solution; CG: clear gel
Source text: as §1, §2, §3, §4, §5, §6, §7

[6] = hydrogels 11-13 at 1% w/v, FST fixed strain 0.1%

Time (gelation time) ([1]; solvent switch, DMSO 50 % v/v, 1% w/v): Immed.
Time (gelation time) ([1]; solvent switch, EtOH 5 % v/v): Immed.
Time (gelation time) ([1]; solvent switch, EtOH 50 % v/v, 1% w/v): Immed.
Time (gelation time) ([1]; solvent switch, MeOH 50 % v/v, 1% w/v): Immed.
CGC (critical gel concentration) ([1]; solvent switch, co-solvent DMSO 50 % v/v): 0.4 % w/v
CGC (critical gel concentration) ([1]; solvent switch, co-solvent EtOH 50 % v/v): 0.4 % w/v
CGC (critical gel concentration) ([1]; solvent switch, co-solvent MeOH 50 % v/v): 0.4 % w/v
Time (self-assembly/gelation) ([1]; trigger NaOH): 48 h
pH ([1]; trigger NaOH): 11
Time (self-assembly/gelation) ([1]; trigger NaOH + GdL): 1 h
pH ([1]; trigger NaOH + GdL): 5.5 and 5.2
CGC (critical gel concentration) ([1]; trigger NaOH + GdL (pH switch)): 0.2 % w/v
CGC (critical gel concentration) ([1]; trigger NaOH + NaCl): 0.2 % w/v
Time (self-assembly/gelation) ([1]; trigger NaOH + NaCl): 3 h
pH ([1]; trigger NaOH + NaCl): 11
G′/G″ ([2]; hydrogel 4 at pH 5.5-6): 17
G″ ([2]; hydrogel 4 at pH 5.5-6): 0.6 kPa
G′ ([2]; hydrogel 4 at pH 5.5-6 (low pH, GdL), before irradiation): 10.2 kPa
G′/G″ ([2]; hydrogel 4 at pH 11): 12
G″ ([2]; hydrogel 4 at pH 11): 1.1 kPa
G′ ([2]; hydrogel 4 at pH 11 (high pH, NaCl)): 13.2 kPa
G′ after irradiation ([2]; hydrogel 4 irradiated (λ=440-450 nm) for 2 hours, after NO release): 4.9 kPa
% strain (LVER) ([3]; hydrogel 4 at pH 5.5-6): 1.4%
% strain (LVER) ([3]; hydrogel 4 at pH 11): 1.2%
diameter of larger (bundled) fibers ([4]; hydrogel 4, before irradiation): 104±4 nm
fiber diameter ([4]; hydrogel 4 formed at high pH): 40±3 nm
fiber diameter ([4]; hydrogel 4 formed at low pH): 43±5 nm
fiber bundle diameter after irradiation ([4]; hydrogel 4 irradiated for 2 hours (blue light)): 68±6 nm
Remarks (gel state) ([5]; trigger NaOH): VS
Remarks (gel state) ([5]; trigger NaOH + GdL): CG
Remarks (gel state) ([5]; trigger NaOH + NaCl): CG
Structure (SMILES): O=C(Nc1ccccc1C(=O)N[C@@H](Cc1ccccc1)C(=O)N[C@@H](Cc1ccccc1)C(=O)O)c1ccc([N+](=O)[O-])c(C(F)(F)F)c1 [Compound 4, (2-(4-Nitro-3-(trifluoromethyl)benzamido)benzoyl)-L-phenylalanyl-L-phenylalanine]

CGC ([1]; cationic peptides 10-14, triggers GdL, heat and NaCl (13: heat and NaCl)): 0.1 % w/v
pH ([1]; hydrogels of cationic peptides 10-14): 5.5
G′/G″ ratio ([2]; hydrogels 11-13 at 1% w/v): 11.9
G′ (modulus storage) [2, 6]: 0.83 kPa
G″ (modulus loss) [2, 6]: 0.07 kPa
LVER (linear viscoelastic region) ([3]; hydrogels at 1% w/v, SST at 1 Hz, 0.1% to 100% strain): 0.98 ± 0.05%
fiber bundle diameter ([4]; hydrogel after addition of salt, 4× below CGC): 115±5 nm
diameter of fibers in the released solution ([4]; solution released from hydrogel 11, below CGC): 47±4.9 nm
fiber diameter ([4]; viscous solution without salt, 0.05% w/v): 74±6 nm
Remarks (gel state) ([5]; cationic peptides 10-14, vial inversion test): CG
Structure (SMILES): NCCCNC(=O)[C@H](Cc1ccccc1)NC(=O)c1ccccc1NC(=O)c1ccc2ccccc2c1 [Compound 11]
